Measurements from PubChem BioAssay (NCI).
“And” between values parts separate entries of the source, which are not always exact repeats. Equal values may be shown once.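 Five compound concentrations were applied to cells in 96-well plates for 48 hours; endpoints were derived by simple linear interpolation of the resulting dose-response curve. GI50 is the concentration that inhibits growth by half. TGI: total growth inhibition.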

Legend:
Assay in all cases: DTP human tumour cell line panel, 48 h
SF-539 CNS = system: SF-539 CNS
MCF7 breast = system: MCF7 breast
U251 CNS = system: U251 CNS
CAKI-1 renal = system: CAKI-1 renal
MDA-MB-231 breast = system: MDA-MB-231 breast
SR leukemia = system: SR leukemia
HOP-62 NSCLC = system: HOP-62 NSCLC
ACHN renal = system: ACHN renal
RXF 393 renal = system: RXF 393 renal
UACC-257 melanoma = system: UACC-257 melanoma

SMILES	GI50 (SF-539 CNS)	TGI (SF-539 CNS)	GI50 (MCF7 breast)	TGI (MCF7 breast)	GI50 (U251 CNS)	TGI (U251 CNS)	GI50 (CAKI-1 renal)	TGI (CAKI-1 renal)	GI50 (MDA-MB-231 breast)	TGI (MDA-MB-231 breast)	GI50 (SR leukemia)	TGI (SR leukemia)	GI50 (HOP-62 NSCLC)	TGI (HOP-62 NSCLC)	GI50 (ACHN renal)	TGI (ACHN renal)	TGI (RXF 393 renal)	TGI (UACC-257 melanoma)	GI50 (RXF 393 renal)	GI50 (UACC-257 melanoma)
NS(=O)(=O)NCCNc1nonc1C(=Nc1ccc(F)c(Br)c1)NO	37.5 µM	> 100 µM	32.9 µM	> 100 µM	53.1 µM	> 100 µM	33.8 µM	> 100 µM	34 µM	> 100 µM	30.2 µM	> 100 µM	> 100 µM	> 100 µM	31.2 µM	> 100 µM	–	–	–	–
Cn1c(N)nc(=O)c2c1N(C1OC(CO)C(O)C1O)CN2Cc1ccccc1 (stereo not given)	–	> 100 µM	–	–	–	> 100 µM	–	> 100 µM	–	–	–	> 100 µM	–	> 100 µM	–	> 100 µM	> 100 µM	> 100 µM	–	–
C=C1C(OC(=O)/C=C/c2ccccc2)CC(OC(C)=O)C2(C)C1CC1CC(OC(C)=O)C(C)=C(C(OC(C)=O)C2OC(C)=O)C1(C)C (stereo not given)	–	> 100 µM	–	–	–	> 100 µM	–	> 100 µM	–	–	–	> 100 µM	–	> 100 µM	–	–	–	–	–	–
COc1ccc(/C=C2\CCC(CCN(C)C)(C3=CCCC3)C2=O)cc1Br (stereo not given)	–	25.7 µM	–	–	–	19 µM	–	21.2 µM	–	–	–	5.06 µM	–	30.9 µM	–	21.5 µM	6.99 µM	5.5 µM	–	–
O=C(O/N=C1/CCC/C1=C\c1ccccc1)c1ccc(Cl)c(Cl)c1	–	> 100 µM	–	–	–	> 100 µM	–	> 100 µM	–	–	–	> 100 µM	–	> 100 µM	–	> 100 µM	> 100 µM	> 100 µM	–	–
CCOC(=O)c1cc(-c2ccccc2)[nH]c1N/N=C/c1ccc(Cl)cc1	> 100 µM	> 100 µM	19.5 µM	> 100 µM	> 100 µM	> 100 µM	30.9 µM	> 100 µM	> 100 µM	> 100 µM	–	–	87.3 µM	> 100 µM	> 100 µM	> 100 µM	> 100 µM	> 100 µM	> 100000 nM	> 100 µM
CCOC(=O)c1cnc2c(ccc3ncccc32)c1NCCCN(CC)CC	–	–	–	–	–	> 100 µM	–	> 100 µM	–	–	–	–	–	> 100 µM	–	> 100 µM	–	> 100 µM	–	–
COC(=O)C12OCC34C(CC5C(C)C6=CC(=O)OC6=CC5(C)C3C(O)C1O)OC(=O)C(O)C24 (stereo not given)	0.0328 µM	0.116 µM and 0.397 µM	–	–	0.0446 µM	–	–	30 µM	–	–	–	–	0.177 µM	0.704 µM and 3.54 µM	0.486 µM	17.1 µM	4.49 µM	8.5 µM	403 nM	0.339 µM
CC1(N)CCN(c2cnc(-c3cccc(Cl)c3Cl)c(N)n2)CC1	12.9 µM	31.5 µM	17.2 µM	37.2 µM	9.02 µM	91.2 µM	14.8 µM	> 100 µM	18.2 µM	48.7 µM	7.6 µM	80 µM	4.28 µM	61.5 µM	10.9 µM	> 100 µM	–	35.2 µM	–	17 µM
N#Cc1c(N)nc(N2CCOCC2)c(C#N)c1-c1ccccn1	> 100 µM	> 100 µM	> 100 µM	> 100 µM	> 100 µM	> 100 µM	> 100 µM	> 100 µM	–	–	–	–	> 100 µM	> 100 µM	> 100 µM	> 100 µM	> 100 µM	> 100 µM	> 100000 nM	> 100 µM
O=C1OC(=O)C2CCCC3CCCC1C32 (stereo not given)	–	> 100 µM	–	> 100 µM	–	> 100 µM	–	> 100 µM	–	> 100 µM	–	–	–	> 100 µM	–	> 100 µM	> 100 µM	> 100 µM	–	–
CCOC(=O)C(CC/C=C\c1ccccc1)N1CCC[C@H]1C(=O)OC (stereo not given in full)	–	> 100 µM	–	–	–	> 100 µM	–	> 100 µM	–	–	–	> 100 µM	–	> 100 µM	–	> 100 µM	> 100 µM	> 100 µM	–	–
Cc1cccc2c1CCC21OC(=O)c2c1ccc1ccccc21 (stereo not given)	–	–	–	–	–	> 100 µM	–	> 100 µM	–	–	–	85.3 µM	–	> 100 µM	–	> 100 µM	> 100 µM	85.5 µM	–	–
O=C(O)c1c(=O)cccc2ssc12	1.98 µM	3.84 µM	1.83 µM	3.9 µM	1.74 µM	3.16 µM	12 µM	24.6 µM	2.29 µM	4.67 µM	–	–	1.81 µM	3.44 µM	1.72 µM	3.21 µM	3.39 µM	4.19 µM	1910 nM	2.02 µM
O=C(NO)[C@@H](Cc1ccccc1)NS(=O)(=O)c1ccc(-c2ccccc2)cc1	9.56 µM	> 25 µM	> 25 µM	> 25 µM	21.3 µM	> 25 µM	9.6 µM	> 25 µM	> 25 µM	> 25 µM	–	–	18.1 µM	> 25 µM	12.2 µM	> 25 µM	–	> 25 µM	–	> 25 µM
O=C1C2C(C(=O)N1c1ccccc1)C1([N+](=O)[O-])C=C3c4ccccc4N(C(=O)c4ccccc4)C32C2C(=O)N(c3ccccc3)C(=O)C21 (stereo not given)	–	–	–	–	–	> 100 µM	–	> 100 µM	–	–	–	> 100 µM	–	> 100 µM	–	> 100 µM	–	> 100 µM	–	–
O=NNc1ccc(Sc2ccc(NN=O)cn2)nc1	–	> 100 µM	–	> 100 µM	–	> 100 µM	–	> 100 µM	–	> 100 µM	–	> 100 µM	–	> 100 µM	–	> 100 µM	–	> 100 µM	–	–
Cc1cccc(C(C)(C)C)c1NC(=O)CCc1nc(=S)[nH][nH]1	–	> 100 µM	–	–	–	> 100 µM	–	> 100 µM	–	–	–	–	–	> 100 µM	–	> 100 µM	> 100 µM	> 100 µM	–	–
CN(C)CCNC(=O)Cn1cnc2cccc([N+](=O)[O-])c2c1=O	–	> 100 µM	–	> 100 µM	–	> 100 µM	–	> 100 µM	–	–	–	> 100 µM	–	> 100 µM	–	> 100 µM	> 100 µM	> 100 µM	–	–
CC(C)(C)c1ccc(OCCOCCOc2ccc(C(C)(C)C)cc2S(=O)(=O)Nc2ccc([N+](=O)[O-])cc2)c(S(=O)(=O)Nc2ccc([N+](=O)[O-])cc2)c1	–	> 100 µM	–	–	–	> 100 µM	–	> 100 µM	–	–	–	–	–	> 100 µM	–	> 100 µM	> 100 µM	> 100 µM	–	–
